Results on eight compounds are retold here after ChEMBL document CHEMBL5725691, “Bromodomain inhibitors” (2018).

The target in the assay is Bromodomain-containing protein 4 (Homo sapiens, UniProt O60885). The assay can be described thus: His-tagged BRD4 was cloned, expressed and purified to homogeneity. […] BRD4 binding and inhibition was assessed by monitoring the interaction of biotinylated H4-tetraacetyl peptide (AnaSpec, H4K5/8/12/16(Ac), biotin-labeled) with the target using the AlphaScreen technology (Life Technologies). […] After 20 min incubation at room temp, Alpha streptavidin donor beads and Nickel Chelate acceptor beads were added to a final concentration of 5 μg/mL.
`CCS(=O)(=O)c1ccc(OCC2CC2)c(-c2cn(C)c(=O)c3c2OCC(=O)N3)c1` displayed an IC50 of less than 500 nM.
As to `Cc1cc(-c2cc(OCc3ccccc3Cl)cc(S(C)(=O)=O)c2)cn(C)c1=O`, the IC50 is less than 500 nM.
As for `Cc1c(-c2cc(NS(C)(=O)=O)ccc2Oc2ccc(F)cc2F)cn(C)c(=O)c1C`, the figure is less than 500 nM; as for `CCCOc1ccc(S(C)(=O)=O)cc1-c1cn(C)c(=O)c2cnc(-c3cnn(C)c3)nc12`, less than 500 nM.
Regarding `Cn1cc(-c2cc(S(C)(=O)=O)ccc2OCC2CC2)c2cc(C(F)(F)F)ccc2c1=O`, the IC50 was less than 500 nM.
In the case of `CCS(=O)(=O)Nc1ncc(Oc2ccc(F)cc2F)c(-c2cc(OC)c(=O)n(C)c2)n1`, the IC50 is less than 500 nM.
For `Cc1cc(-c2cn(CS(C)(=O)=O)c(=O)cc2Oc2ccc(F)cc2F)cn(CC2CC2)c1=O`, the IC50 was less than 500 nM.
In the case of `CCS(=O)(=O)c1ccc(NCC2CC2)c(-c2cc(Cl)c(=O)n(C)c2)c1` it was less than 500 nM.

For orientation: IC50 means the concentration that gives 50% inhibition. Lower therefore signals greater potency.
